Results on two compounds are retold here after patent US20210059983A1, “METHODS AND MATERIALS FOR IDENTIFYING AND TREATING CANCER” (Mayo Foundation for Medical Education and Research, priority 2018, published 2021).

The target of experiment [1] is recombinant TET-2 protein (Homo sapiens, UniProt Q6N021). Nature of the experiment: Fluorescence quenching of recombinant TET-2 protein (Stern-Volmer). In kind it is binding. As to the method: The step width was 1 nm, and the integration time was 1 second.
All protein solutions contained 0.5 μM TET2 in PBS buffer.
In this equation, KD was the quenching constant, and [Q] was a defined concentration of ascorbic acid. F^0 and F were the fluorescence intensities (at 328 nm) in absence and presence of ascorbic acid, respectively.

In experiment [2] the test system is TET enzymatic activity in RCC cells (769P and 7860). Nature of the experiment: In-vitro TET enzymatic activity of nuclear extracts from AA treated RCC cells (ELISA-based Epigenase 5mC Hydroxylase TET Activity kit). Conditions: pH neutralized AA, ccRCC cell lines 769P and 7860, short exposure then 24 hour incubation in fresh media. As to the method: Cells were treated with different concentrations of pH neutralized AA, with or without catalase. Exposure time to 1 mM AA was 2 hours (taking into account the plasma concentration curve with intravenous (i.v.) AA and potential differences between plasma concentrations with that of tumor microenvironment) followed by the cells being washed and incubated in fresh media for 24 hours. Nuclear protein was then isolated from cells using the EpiQuik nuclear extraction kit (Epigentek Group Inc, Farmingdale, N.Y., USA), according to the manufacturer's instructions. TET enzymatic activity was measured by using the Enzyme Linked ImmunoSorbent Assay (ELISA)-based Epigenase 5mC Hydroxylase TET Activity/Inhibition Assay Kit (Fluorometric) according to the manufacturer's instructions. This technique relied on the conversion of methylated products at the bottom of the wells to hydroxymethylated products by the TET enzyme present in the nuclear extract. Thus, the amount of hydroxymethylated products formed was a measure of the TET activity of the nuclear extract harvested from the cells being tested. Incubation time of nuclear lysates was 90 minutes. Six micrograms of nuclear lysate was used per well for measurement of TET activity.

In the next experiment the test system is RCC cells 769P. The experiment is described as follows: Measurement of 5hmC levels by LC-ESI-MS/MS. The class given is cell-based. Conditions: 769P cells after AA treatment.
The test system of experiment [3] is ccRCC cells (786 and 769). Nature of the experiment: Genome wide DNA methylation analysis using the HELP assay. The class given is cell-based, human. The method, then:
The HELP assay was carried out as described elsewhere ([…] et al., Nucleic Acids Res., 41(16):e157 (2013)). Intact DNA of high molecular weight was corroborated by electrophoresis on 1% agarose gel in all cases. One microgram of genomic DNA was digested overnight with either HpaII or MspI (NEB, Ipswich, Mass.). The following day, the reactions were extracted once with phenol-chloroform and resuspended in 11 μL of 10 mM Tris-HCl pH 8.0. The digested DNA was used to set up an overnight ligation of the JHpaII adapter using T4 DNA ligase. The adapter-ligated DNA was used to carry out the PCR amplification of the HpaII and MspI-digested DNA as described elsewhere ([…] et al., Nucleic Acids Res., 41(16):e157 (2013)). Both amplified fractions were submitted for labeling and hybridization onto a human hg18 custom-designed oligonucleotide array (50-mers) covering 1.3 million HpaII amplifiable fragments (HAF). All microarray hybridizations were subjected to extensive quality control. Uniformity of hybridization was evaluated using a modified version of an algorithm adapted for the NimbleGen platform, and any hybridization with strong regional artifacts was discarded. Bioinformatic analysis was done as described elsewhere (Bhattacharyya et al., Nucleic Acids Res., 41(16):[…] (2013); Suzuki et al., Genome Biol., 11(4):[…] (2010)).

The next experiment concerns RCC (786O) cells. The experiment is described as follows: Cell viability (Cell Titer Blue). In kind it is cell-based. The method, then: Cells were incubated at varying concentrations and at various time periods with L-ascorbic acid (Sigma-Aldrich, Cat #50-81-7) with or without catalase at 100 μg/mL (Sigma-Aldrich, Cat #9001-05-2). Viability was assessed by addition of Cell Titer Blue (Promega, Madison, Wis., USA) and measured via Fluostar Omega Microplate reader (BMG Labtech, Offenburg, Germany). […] A protocol modification to counter this interference was done as described elsewhere (Shenoy et al., Laboratory Investigation, 97:494-497 (2017)) and used in this study.

Experiment [4] has as its system 786-O cells. The experiment is described as follows: Flow cytometry for apoptosis (Annexin V/PI). In kind it is cell-based. Conditions: AA 1 mM + catalase, assay at 96 hour time point. As to the method: (§1) 786-O cells were treated with high dose ascorbic acid (+catalase), and apoptosis and cell cycle dynamics were studied at the 96 hour time point. Cells were washed with Annexin buffer solution and stained with both propidium iodide (PI) and FITC-Annexin V (Life Technologies), and assayed on a BD FACS Calibur flow cytometer (BD Biosciences). Apoptosis results were analyzed with BD CellQuest software. For cell cycle analysis, cells were fixed with 70% cold ethanol and subsequently analyzed after PI staining. Analysis was performed using FlowJo software.

Experiment [5] concerns 786-O cells. The experiment is described as follows: Flow cytometry for cell cycle analysis (PI). In kind it is cell-based. Conditions: high dose AA + catalase, 96 hours. As to the method: as §1
(In general: Flow cytometry measures light scatter and fluorescence of single cells or particles in a stream.)

Experiment [6] relates to RCC cells (786O) xenografted. Nature of the experiment: In vivo xenograft study with AA. Particulars: IV AA 1 g/kg per day, 5 days/week, 5 weeks, vs vehicle; n=10 per cohort. The arrangement: species or system immunodeficient NSG mice. As to the method: RCC cells (786O) were xenografted into immunodeficient NSG mice. After tumors were established, treatment was initiated with tail vein injections: IV AA at 1 g/kg/d or vehicle over 5 weeks (5 days dosing/week), and tumor measurements were conducted.

Setting [7] is: 0.5 μM TET-2 alone in PBS, 20° C.

Structures are written as SMILES. “Also recorded” adds a separate entry of the source.

As to `O=C(O)CCC(=O)C(=O)O` [2OG], in experiment [1] (setting [7]), the “quenching efficiency (Stern-Volmer constant +/−SD)” value is 15.66 ± 0.12 M⁻¹.

On to `O=C1O[C@H]([C@@H](O)CO)C(O)=C1O` [AA, L-ascorbic acid], for which the “quenching efficiency (Stern-Volmer constant +/−SD)” value in experiment [1] (setting [7]) was determined as 21.46 ± 0.70 M⁻¹; in experiment [1] (0.5 μM TET-2 in presence of 23 μM 2OG) it was 18.37 ± 0.80 M⁻¹; in experiment [1] (0.5 μM TET-2 in presence of 2OG and L2HG (23 μM each per FIG. 5D legend)), 17.34 ± 0.87 M⁻¹; in experiment [1] (0.5 μM TET-2 in presence of L2HG (100 μM per FIG. 5D legend)), 22.17 ± 0.68 M⁻¹. Besides, the “reduction of the fluorescence emission signal” value in experiment [1] (132 μM AA, 0.5 μM TET-2, emission at 328 nm, excitation 280 nm, maximal quenching) is recorded as 90%. Also, the TET enzymatic activity result in experiment [2] was “increased after treatment; also recorded: increase in TET enzymatic activity”. The “5hmC (%5hmC) by LC-ESI-MS/MS” value in the experiment on RCC cells 769P is on record as “significantly increased; also recorded: increase in 5hmC”. For the same compound, the Smad6 promoter methylation entry in experiment [3] (786 and 769 ccRCC cells after AA treatment) is listed as “demethylated”. The “global cytosine methylation (HELP assay)” value in experiment [3] (AA treated vs control ccRCC cells) is listed as “increased hypomethylation; also recorded: loss of methylation”. Also, the “viability, acute (short term exposure)” value with RCC (786O) cells (high dose AA (millimolar), 24 hours, without catalase) is “Acute loss in viability”. Besides, in the experiment with RCC (786O) cells (high dose AA with catalase, longer-term exposure), the “viability at longer time points” value was “reduced viability; also recorded: dose dependent and progressive loss of viability”. In the experiment with RCC (786O) cells (high dose AA, 24 hours, with catalase 100 μg/mL), the “acute loss in viability with catalase co-treatment” value was “reversed by catalase treatment”. Besides, the apoptosis entry in the experiment with 786-O cells [4] is reported as “increased apoptosis; also recorded: significant increase in apoptosis”. Besides, in the experiment with 786-O cells [5], the “cell cycle (G0/G1 arrest)” value is recorded as “significantly arrested in G0/G1 stage; also recorded: significant increase in G0/G1 arrest”. Besides, in experiment [6], the tumor growth entry is recorded as “significantly reduced rate of ccRCC growth; also recorded: significantly delayed tumor growth”.
